Experimental findings from patent US20030022241A1, “Methods” (priority 2001, published 2003) are described below.

The target of the assay is native MNK-2B (Homo sapiens, UniProt Q9HBH9). The assay can be described thus: NMR screening (Saturation Transfer Difference) for compounds binding Mnk2b. The settings on record: screen: 1 μM native MNK-2B, 200 μM compound mixture; confirmation: 2 μM native Mnk2B, 250 μM individual compound; pH 7.5, 20° C. From the text: A diversity library consisting of relatively small and highly water-soluble compounds was used to screen native MNK-2B for binders by NMR (Nuclear Magnetic Resonance). The NMR tecinique used to identify binders was Saturation Transfer Difference (STD): the protein ^1H resonances are saturated by means of a weak radio-frequency field applied to a narrow spectral region. The saturation is transferred by spin diffusion to the rest of the protein and subsequently further to compounds that bind to the protein attenuating their signals in the NMR spectrum. The spectrum is then subtracted from a spectrum obtained at non-saturating conditions to obtain an STD spectrum showing only the signals from compounds interacting with the protein. In practice the pulse sequence is written in such a way that the subtraction is done automatically in every other scan, i.e. the individual spectra are never observed (Mayer & Meyer, Angew. Chem. Int. Ed., 38, 1784-1788, 1999).
The compounds in the library are divided into mixtures consisting of 4-8 compounds each. Each sample contained 1 μM native MNK-2B, 200 μM compound mixture, 50 mM sodium phosphate buffer, 1 mM DTT, pH 7.5 in ca 98% D2O/2% H2O. […] The volume was 600 μl and standard NMR tubes were used. […] A reference ^1H 1D experiment and an STD experiment were recorded on each sample. […]

Chain of native MNK-2B (Q9HBH9 1-414 isoform Q9HBH9-2): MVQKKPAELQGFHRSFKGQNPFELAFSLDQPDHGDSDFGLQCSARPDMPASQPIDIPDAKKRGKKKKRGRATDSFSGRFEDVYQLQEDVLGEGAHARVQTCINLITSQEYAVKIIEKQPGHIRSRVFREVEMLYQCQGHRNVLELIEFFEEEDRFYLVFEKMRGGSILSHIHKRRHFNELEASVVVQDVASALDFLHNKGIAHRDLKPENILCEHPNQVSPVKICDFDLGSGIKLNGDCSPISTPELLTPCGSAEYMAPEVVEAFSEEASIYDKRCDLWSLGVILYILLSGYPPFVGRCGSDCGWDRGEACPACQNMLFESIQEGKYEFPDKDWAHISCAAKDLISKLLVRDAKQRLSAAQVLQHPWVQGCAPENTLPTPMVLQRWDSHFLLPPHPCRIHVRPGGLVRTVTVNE

As to `COC(=O)c1ccc(O)cc1` [4-hydroxy-benzoic acid methyl ester], the “binding to Mnk2b by STD NMR (identified as ligand)” value was “identified as Mnk2b ligands”.
